Reference: ChEMBL document CHEMBL4368902 (J Med Chem, 2019)
Activity calls are given as the source filed them. The rule behind the calls is not given here. Positions of bridges follow the written chain, without caps; N, C: chain ends. Non-standard residues stand in square brackets, D forms with d. Residues, ends and D or L forms follow the SMILES beside them. Nle = CCCC[C@H](N)C(=O)O

Columns and labels:
[1] = biological target: T1, Growth hormone secretagogue receptor type 1 (Homo sapiens, UniProt Q92847); test: Inverse agonist activity at SNAP-tagged human GHSR expressed in HEK293T cells assessed as reduction in inositol phosphate production after 30 mins by HTRF assay; type: functional, cell-based
T1 sequence (Q92847 whole entry): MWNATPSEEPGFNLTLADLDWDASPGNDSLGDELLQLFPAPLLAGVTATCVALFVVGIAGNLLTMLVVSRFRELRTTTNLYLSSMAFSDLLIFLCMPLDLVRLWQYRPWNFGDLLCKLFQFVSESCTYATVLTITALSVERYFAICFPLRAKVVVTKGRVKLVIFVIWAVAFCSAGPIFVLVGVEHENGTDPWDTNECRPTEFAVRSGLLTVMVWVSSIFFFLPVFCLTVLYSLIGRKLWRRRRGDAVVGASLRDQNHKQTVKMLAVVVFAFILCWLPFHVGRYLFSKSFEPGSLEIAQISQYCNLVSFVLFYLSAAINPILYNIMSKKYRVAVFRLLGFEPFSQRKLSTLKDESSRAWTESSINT

Mus musculus [2] = test: Anorexigenic activity in C57BL/6J mouse assessed as reduction in ghrelin-induced food intake at 0.6 nmol/g body weight, sc measured after 2 hrs post dose; type: functional, organism-based
[3] = biological target: Growth hormone secretagogue receptor type 1 (Rattus norvegicus) (UniProt O08725); test: Inverse agonist activity at GHSR in Wistar rat pancreatic islets assessed as inhibition of ghrelin-induced insulinostatic action after 1 hr in presence of glucose
Growth hormone secretagogue receptor type 1 (Rattus norvegicus), sequence (O08725 whole entry, looked up): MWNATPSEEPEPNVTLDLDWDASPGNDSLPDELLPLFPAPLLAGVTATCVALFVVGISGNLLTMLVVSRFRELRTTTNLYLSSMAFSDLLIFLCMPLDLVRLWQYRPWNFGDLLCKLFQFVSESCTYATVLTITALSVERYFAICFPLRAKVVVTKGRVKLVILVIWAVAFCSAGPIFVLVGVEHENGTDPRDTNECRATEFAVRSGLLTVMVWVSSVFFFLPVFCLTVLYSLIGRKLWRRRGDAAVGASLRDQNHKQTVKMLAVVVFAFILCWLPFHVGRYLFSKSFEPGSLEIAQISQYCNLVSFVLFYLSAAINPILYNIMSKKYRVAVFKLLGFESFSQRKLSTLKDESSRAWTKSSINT

Mus musculus [4] = test: Effect on food intake in C57BL/6J mouse at 0.6 nmol/g body weight, sc measured after 2 hrs post dose; type: ADME, organism-based; settings: in vivo
[5] = biological target: T1, Growth hormone secretagogue receptor type 1; test: Displacement of […] from SNAP-tagged human GHSR expressed in HEK293T cells after 3 hrs by HTRF assay; type: cell-based
[6] = biological target: T1, Growth hormone secretagogue receptor type 1; test: Competitive antagonist activity at SNAP-tagged human GHSR expressed in HEK293T cells assessed as reduction in ghrelin-induced inositol phosphate production at 1 uM after 30 mins by HTRF assay; type: functional, cell-based; settings: read-out: pA2 (converted)
[7] = biological target: T1, Growth hormone secretagogue receptor type 1; test: Competitive antagonist activity at human SNAP-tagged GHSR expressed in HEK293T cells assessed as reduction in ghrelin-induced calcium production at 1 uM after 15 mins by Fluo 4-AM dye-based fluorescence assay; type: functional, cell-based; settings: read-out: pA2 (converted)

With `CCCC[C@H](N)C(=O)N[C@H](C(=O)N1CCC[C@H]1C(=O)N[C@@H](Cc1ccccc1)C(=O)N[C@@H](Cc1c[nH]c2ccccc12)C(=O)N[C@@H](CCCNC(=N)N)C(=O)NCC(=O)N[C@H](C(=O)N[C@@H](CO)C(=O)N[C@@H](CC(C)C)C(=O)N[C@@H](CCCNC(=N)N)C(=O)N1CCC[C@H]1C(N)=O)C(C)C)[C@@H](C)O` (H-[Nle]TPFWRGVSLRP-NH2) the EC50 [1] was 46 nM, the Activity (Mus musculus [2]) was “Active” and the Activity [3] was “Active”. The Activity (Mus musculus [4]) was “Non-Toxic” and the Ki [5] was 2.7 nM.
Work on `CCCC[C@H](N)C(=O)N[C@H](C(=O)N1CCC[C@H]1C(=O)N[C@@H](Cc1ccccc1)C(=O)N[C@@H](Cc1c[nH]c2ccccc12)C(=O)N[C@@H](CCCNC(=N)N)C(=O)NCC(=O)N[C@H](C(N)=O)C(C)C)[C@@H](C)O` (H-[Nle]TPFWRGV-NH2) yielded an EC50 [1] of 368 nM and a Ki [5] of 6.45 nM.
With `CCCC[C@H](N)C(=O)N[C@H](C(=O)N1CCC[C@H]1C(=O)N[C@@H](Cc1ccccc1)C(=O)N[C@@H](Cc1c[nH]c2ccccc12)C(=O)N[C@@H](CCCNC(=N)N)C(=O)NCC(=O)N[C@H](C(=O)N[C@@H](CO)C(=O)N[C@@H](CC(C)C)C(=O)N[C@@H](CCCNC(=N)N)C(=O)N1CCC[C@H]1C(=O)N[C@H](C(=O)NCC(N)=O)[C@@H](C)CC)C(C)C)[C@@H](C)O` (H-[Nle]TPFWRGVSLRPIG-NH2) the EC50 [1] was 48 nM and the Ki [5] was 3.05 nM.
For `CC[C@H](C)[C@@H]1NC(=O)[C@@H]2CSSC[C@@H](C(=O)N[C@@H](CO)C(=O)N[C@@H](CC(C)C)C(=O)N[C@@H](CO)C(=O)N[C@H](C(=O)N[C@@H](C)C(=O)N[C@@H](CCC(N)=O)C(=O)N[C@@H](CCC(=O)O)C(=O)O)C(C)C)NC(=O)[C@H](CCCNC(=N)N)NC(=O)[C@H](CCCNC(=N)N)NC(=O)[C@H](CCCCN)NC(=O)[C@H](CCCNC(=N)N)NC(=O)[C@H](CSSC[C@H](NC(=O)[C@H](CO)NC(=O)[C@H](C)NC(=O)CNC(=O)[C@@H](NC(=O)[C@@H]3CCCN3C(=O)[C@H](CCCNC(=N)N)NC(=O)[C@H](CC(C)C)NC(=O)[C@H](CO)NC(=O)[C@@H](NC(=O)CNC(=O)[C@H](CCCNC(=N)N)NC(=O)[C@H](Cc3c[nH]c4ccccc34)NC(=O)[C@H](Cc3ccccc3)NC(=O)[C@@H]3CCCN3C(=O)[C@@H](NC(=O)[C@@H](N)CCSC)[C@@H](C)O)C(C)C)[C@@H](C)CC)C(=O)N[C@@H](CCCNC(=N)N)C(=O)N[C@@H](CC(=O)O)C(=O)N[C@@H](CC(=O)O)C(=O)N[C@@H](CO)C(=O)N[C@@H](CCC(=O)O)C(=O)N2)NC(=O)[C@H](CC(C)C)NC(=O)[C@H](CCCNC(=N)N)NC(=O)[C@H]([C@@H](C)O)NC1=O` (H-MTPFWRGVSLRPIGASCRDDSECITRLCRKRRCSLSVAQE-OH; disulfide 17-28, 23-33), the Kb [6] was 1.48 nM, the EC50 [1] was 22.8 nM and the Activity (Mus musculus [4]) was “Non-Toxic”. The Ki [5] was 1.26 nM and the Kb [7] was 10.2 nM.
In the case of `CCCC[C@H](N)C(=O)N[C@H](C(=O)N1CCC[C@H]1C(=O)N[C@@H](Cc1ccccc1)C(=O)N[C@@H](Cc1c[nH]c2ccccc12)C(=O)N[C@@H](CCCNC(=N)N)C(=O)NCC(=O)N[C@H](C(=O)N[C@@H](CO)C(=O)N[C@@H](CC(C)C)C(=O)N[C@@H](CCCNC(=N)N)C(=O)N1CCC[C@H]1C(=O)N[C@H](C(=O)NCC(=O)O)[C@@H](C)CC)C(C)C)[C@@H](C)O` (H-[Nle]TPFWRGVSLRPIG-OH), the Kb [6] is reported as 34.7 nM, the EC50 [1] is reported as 76.4 nM and the Ki [5] is reported as 3.66 nM. For the same compound, the Kb [7] was 89.1 nM.
`CC(C)C[C@H](NC(=O)[C@H](CO)NC(=O)[C@@H]1CSSC[C@@H]2NC(=O)[C@H](CCC(=O)O)NC(=O)[C@H](CO)NC(=O)[C@@H](CC(=O)O)NC(=O)[C@@H](CC(=O)O)NC(=O)[C@@H](CCCNC(=N)N)NC(=O)[C@H](NC(=O)[C@@H](CO)NC(=O)[C@@H](C)N)CSSC[C@H](NC(=O)[C@H](CC(C)C)NC(=O)[C@H](CCCNC(=N)N)NC(=O)[C@H]([C@@H](C)O)NC(=O)[C@H]([C@@H](C)O)NC2=O)C(=O)N[C@@H](CCCNC(=N)N)C(=O)N[C@@H](CCCCN)C(=O)N[C@@H](CCCNC(=N)N)C(=O)N[C@@H](CCCNC(=N)N)C(=O)N1)C(=O)N[C@@H](CO)C(=O)N[C@H](C(=O)N[C@@H](C)C(=O)N[C@@H](CCC(N)=O)C(=O)N[C@@H](CCC(=O)O)C(=O)O)C(C)C` was tested, and the Activity (Mus musculus [2]) was “inactive”.
`CCCC[C@H](N)C(=O)N[C@H](C(=O)N1CCC[C@H]1C(=O)N[C@@H](Cc1ccccc1)C(=O)N[C@@H](Cc1c[nH]c2ccccc12)C(=O)N[C@@H](CCCNC(=N)N)C(=O)NCC(=O)N[C@H](C(=O)N[C@@H](CO)C(=O)N[C@@H](CC(C)C)C(=O)N[C@@H](CCCNC(=N)N)C(=O)N1CCC[C@H]1C(=O)N[C@H](C(=O)NCC(=O)N[C@H](C)C(=O)N[C@H](CO)C(=O)N[C@@H]1CSSC[C@@H]2NC(=O)[C@H](CC(C)C)NC(=O)[C@H](CCCNC(=N)N)NC(=O)[C@H]([C@@H](C)O)NC(=O)[C@H]([C@@H](C)O)NC(=O)[C@H](CSSC[C@@H](C(=O)N[C@@H](CO)C(=O)N[C@@H](CC(C)C)C(=O)N[C@@H](CO)C(=O)N[C@H](C(=O)N[C@@H](C)C(=O)N[C@@H](CCC(N)=O)C(=O)N[C@@H](CCC(=O)O)C(=O)O)C(C)C)NC(=O)[C@H](CCCNC(=N)N)NC(=O)[C@H](CCCNC(=N)N)NC(=O)[C@H](CCCCN)NC(=O)[C@H](CCCNC(=N)N)NC2=O)NC(=O)[C@H](CCC(=O)O)NC(=O)[C@H](CO)NC(=O)[C@@H](CC(=O)O)NC(=O)[C@@H](CC(=O)O)NC(=O)[C@@H](CCCNC(=N)N)NC1=O)[C@@H](C)CC)C(C)C)[C@@H](C)O` was tested, and the Activity (Mus musculus [2]) was “Active”.
In the case of `CC[C@H](C)[C@@H]1NC(=O)[C@@H]2CSSC[C@@H](C(=O)N[C@@H](CO)C(=O)N[C@@H](CC(C)C)C(=O)N[C@@H](CO)C(=O)N[C@H](C(=O)N[C@@H](C)C(=O)N[C@@H](CCC(N)=O)C(=O)N[C@@H](CCC(=O)O)C(=O)O)C(C)C)NC(=O)[C@H](CCCNC(=N)N)NC(=O)[C@H](CCCNC(=N)N)NC(=O)[C@H](CCCCN)NC(=O)[C@H](CCCNC(=N)N)NC(=O)[C@H](CSSC[C@H](NC(=O)[C@H](CO)NC(=O)[C@H](C)N)C(=O)N[C@@H](CCCNC(=N)N)C(=O)N[C@@H](CC(=O)O)C(=O)N[C@@H](CC(=O)O)C(=O)N[C@@H](CO)C(=O)N[C@@H](CCC(=O)O)C(=O)N2)NC(=O)[C@H](CC(C)C)NC(=O)[C@H](CCCNC(=N)N)NC(=O)[C@H]([C@@H](C)O)NC1=O` (H-ASCRDDSECITRLCRKRRCSLSVAQE-OH; disulfide 3-14, 9-19), the Activity (Mus musculus [4]) is reported as “Non-Toxic”.
For `CCCC[C@H](N)C(=O)N[C@H](C(=O)N1CCC[C@H]1C(=O)N[C@@H](Cc1ccccc1)C(=O)N[C@@H](Cc1c[nH]c2ccccc12)C(=O)N[C@@H](CCCNC(=N)N)C(=O)NCC(=O)N[C@H](C(=O)N[C@@H](CO)C(=O)N[C@@H](CC(C)C)C(N)=O)C(C)C)[C@@H](C)O` (H-[Nle]TPFWRGVSL-NH2), the EC50 [1] was 134 nM and the Ki [5] was 3.4 nM.
`CCCC[C@H](N)C(=O)N[C@H](C(=O)N1CCC[C@H]1C(=O)N[C@@H](Cc1ccccc1)C(=O)N[C@@H](Cc1c[nH]c2ccccc12)C(=O)N[C@@H](CCCNC(=N)N)C(N)=O)[C@@H](C)O` (H-[Nle]TPFWR-NH2) gave an EC50 [1] of 6630 nM and a Ki [5] of 55 nM.
